From US20230201360A1, “Composition and Kit for colonization in gut of external probiotics through bioorthogonal click chemistry” (RESEARCH & BUSINESS FOUNDATION SUNGKYUNKWAN UNIVERSITY, priority 2021, published 2023)

What was measured:
HT29-MTX-e12 cells [1] = assay: Azide group expression in goblet cell-like cells, DBCO-Cy5.5 fluorescence imaging; format: cell-based; conditions: 100 μM, 24 hours; DBCO-Cy5.5 labeling
Excerpt: (§1) In order to evaluate the introduction of an azide group (—N3) (i.e., a functional group for bioorthogonal click chemistry) to the intestinal mucosa, HT29-MTX-e12 cells, which are goblet cell-like cells in vitro, were used. An azide group was introduced to the cell surface through glycan manipulation using tetraacetylated N-azidoacetyl-D-mannosamine (ManNAz) and tetraacetylated N-azidoacetyl-D-galactosamine (GalNAz), which are derivatives of mannosamine and galactosamine, which is a molecule used for mucosal formation. Specifically, HT29-MTX-e12 cells were cultured for 24 hours in DMEM medium containing 100 μM ManNAz or GalNAz. The azide group introduced was subjected to fluorescent labeling by culturing for 30 minutes in a medium containing 10 μM DBCO-Cy5.5, washed twice with physiological saline at 4° C., reacted with 20 μM Hoechst 33342 for 15 minutes, and then the cell nuclei were stained and observed.
In the case of introduction of an azide group into the intestinal mucosa, after introduction of an azide group into the HT29-MTX-e12 goblet cell-like cell line by the method of Example 2, the binding ability with DBCO-Cy5.5 was evaluated.

HT29-MTX-e12 cells [2] = assay: Western blot analysis of azide group introduced into goblet cell-like cells; format: cell-based; conditions: various concentrations, 24 hours
Experimental: For quantitative evaluation of an azide group according to the precursor treatment concentration, HT29-MTX-e12 cells in 10 mL medium without sugar or containing various concentrations of GalNAz or ManNAz were inoculated onto 60 mm×15 mm polystyrene tissue culture plates at a density of 2×10^6 cells per plate, and cultured for 24 hours. The cells were obtained after washing with PBS (pH 7.4), lysed in a cell lysis solution (50 mM Tris, pH 7.2, 150 mM NaCl, 1% Triton X-100, 200 ng/mL phenylmethylsulfonyl fluoride) containing phosphatase inhibitor cocktail (St. Louis, Mo., USA), and 10 μL of phosphine-PEG-biotin (Waltham, Mass., Thermofisher Scientific) per 100 μL of the lysate was reacted at room temperature for 12 hours. Then, after subjecting the resultant to electrophoresis on 10% SDS polyacrylamide gel to be transferred to Immobilon P membrane (Millipore Corporation, Billerica, Mass., USA), treated with 1,000:1 diluted HRP-streptavidin (Waltham, Mass., Thermofisher Scientific) at room temperature for 2 hours, and confirmed by developing on Pierce™ECL Western blotting substrate (Waltham, Mass., Thermofisher Scientific).

HT29-MTX-e12 cells [3] = assay: Binding of DBCO-Bac. to azide-introduced goblet cell-like cells (fluorescence images, flow cytometry); format: cell-based; conditions: for binding ability to DBCO-Bac. increase compared to the control group: cells treated with 100 μM precursor; for green fluorescence (distribution of DBCO-Bac. in the culture dish) compared to the control group: low-magnification fluorescence imaging
Excerpt: as §1
When DBCO-Bac. is treated on goblet cell-like cells into which an azide group has been introduced in Experimental Example 3, red fluorescence representing an azide group and green fluorescence representing DBCO-Bac. appear clearly as shown in FIG. 5A.

HT29-MTX-e12 cells [4] = assay: Binding of DBCO-Bac. in 3-dimensional intestinal mucosal simulation model; format: cell-based; conditions: 100 μM precursor; 3D fluorescence image
Experimental: To evaluate the binding ability of DBCO-Bac. to the mucosa in a three-dimensional environment, mucosal formation of HT29-MTX-e12 cells was promoted through N-[N-(3,5-difluorophenacetyl)-L-alanyl]-S-phenylglycine t-butyl ester (DAPT) stimulation, and a 3D intestinal mucosal simulation model was prepared using the same. HT29-MTX-e12 cells were inoculated in DMEM medium and cultured for 24 hours, treated with 20 μM DAPT 4 times at intervals of once every 2 days, and from the second DAPT treatment, treated with the culture medium containing 100 μM GalNAz or ManNAz three times at intervals of once every two days. Then, the resultant was treated with DBCO-Bac. at a concentration of 5×10^8/mL.
Additionally, in order to evaluate the binding ability of DBCO-Bac. to the intestinal mucosa in a three-dimensional environment, a three-dimensional intestinal mucosal simulation model was prepared using HT29-MTX-e12 cells in which mucosal formation was promoted through DAPT stimulation by the method of Example 4 above.

mouse intestinal mucosa [5] = assay: Azide group expression in mouse intestinal mucosa after oral administration (DBCO-Cy5.5 staining); format: in vivo, mice; conditions: 5 mg per animal, duodenum, jejunum, ileum, colon
Experimental: To confirm the expression level and expression time of an azide group in the intestinal mucosa, GalNAz or ManNAz was orally administered to mice, and the expression level of an azide group in the intestinal mucosa was evaluated through the binding ability with DBCO-Cy5.5. 5 mg of GalNAz or ManNAz was orally administered per animal, the intestinal tissue was divided into 4 parts (duodenum, jejunum, ileum, and colon) of the small intestine and extracted after 12 hours, 24 hours, 36 hours, and 48 hours at intervals of 12 hours, and dipped in 20 μM of each DBCO-Cy5.5 solution and stained.
In the case of introducing an azide group into the mouse intestinal mucosa, after oral administration of GalNAz or ManNAz to mice by the method of Example 5 above, the expression level of an azide group in the intestinal mucosa was evaluated through the binding ability with DBCO-Cy5.5.

mouse intestinal mucosa [6] = assay: Bac. remaining in mouse intestinal mucosa after simultaneous treatment with two DBCO-modified bacterial groups; format: in vivo, mice; conditions: oral precursor, simultaneous treatment with both DBCO-modified bacteria
Experimental: In addition, in order to evaluate the intestinal mucosal binding ability of DBCO-Bac., GalNAz or ManNAz per animal was orally administered to 5 mg mice, and 24 hours thereafter, DBCO-Bac. was administered at a concentration of 10^9/mL.
In order to confirm whether bioorthogonal click chemistry of DBCO and an azide group is applicable when several groups of bacteria were administered at once as in probiotics, GalNAz and ManNAz were each orally administered to mice by the method of Example 5, and simultaneously treated with Bifidobacterium longum modified with DBCO and Lactobacillus acidophilus modified with DBCO, and the fluorescence value of Bac. remaining in the intestinal mucosa was confirmed.

Molecule | red fluorescence (azide group) in HT29-MTX-e12 cells (HT29-MTX-e12 cells [1]) | generation of an azide group (HT29-MTX-e12 cells [2]) | binding ability to DBCO-Bac. increase compared to the control group (HT29-MTX-e12 cells [3]) | green fluorescence (distribution of DBCO-Bac. in the culture dish) compared to the control group (HT29-MTX-e12 cells [3]) | green fluorescence (binding ability to DBCO-Bac.) compared to the control group (HT29-MTX-e12 cells [4]) | time after oral administration at which fluorescence intensity (azide expression) was strongest (mouse intestinal mucosa [5]) | amounts of DBCO-modified Bifidobacterium longum and Lactobacillus acidophilus remaining in the intestinal mucosa compared to the control group (mouse intestinal mucosa [6])
CC(=O)OCC1OC(OC(C)=O)C(NC(=O)CN=[N+]=[N-])[C@@H](OC(C)=O)[C@H]1OC(C)=O (stereo partly drawn) [GalNAz, tetraacetylated N-azidoacetyl-D-galactosamine] | red fluorescence appeared | increased depending on the concentration | about 400 times | increased | increased significantly | about 24 hours | higher
tetraacetylated N-azidoacetyl-D-mannosamine [ManNAz] | red fluorescence appeared | increased depending on the concentration | about 500 times | increased | increased significantly | about 24 hours | significantly higher
